Target: T1, MAGL (Homo sapiens, UniProt Q99685)
T1 sequence (Q99685 1-303): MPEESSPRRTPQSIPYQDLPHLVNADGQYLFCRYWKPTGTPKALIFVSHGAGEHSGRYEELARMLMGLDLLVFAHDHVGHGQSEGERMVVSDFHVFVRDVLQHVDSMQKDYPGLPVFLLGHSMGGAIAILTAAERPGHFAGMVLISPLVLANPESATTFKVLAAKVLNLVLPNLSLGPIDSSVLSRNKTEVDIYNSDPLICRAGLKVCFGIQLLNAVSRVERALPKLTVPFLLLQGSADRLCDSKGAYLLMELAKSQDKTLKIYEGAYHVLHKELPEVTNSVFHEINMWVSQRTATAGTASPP
Experiment: 2-AG assay (MAGL inhibitory activity, hydrolysis of 2-arachidonoylglycerol to arachidonic acid followed by mass spectrometry)
Type: biochemical
Details: 8 μM 2-arachidonoylglycerol, 15 min pre-incubation, 30 min incubation at RT, RapidFire MS readout
Method in brief: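 Human MAGL ([…] final) pre-incubated 15 min at RT with compound in 50 mM TRIS, 1 mM EDTA, 0.01% Tween-20, 2.5% DMSO; 8 μM 2-AG then added for 30 min at RT. Acetonitrile quench with d8-arachidonic acid; arachidonic acid measured by RapidFire SPE–MS/MS, activity from arachidonic acid/d8 ratio.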

First: CNC(=O)[C@H](c1ccc(F)cc1)N1CCN(C(=O)N2CC3(CC(n4cnc(C5CC5)n4)C3)C2)CC1 [Example 330, (2S)-2-[4-[6-(3-cyclopropyl-1,2,4-triazol-1-yl)-2-azaspiro[3.3]heptane-2-carbonyl]piperazin-1-yl]-2-(4-fluorophenyl)-N-methyl-acetamide]
Second: CNC(=O)[C@@H](c1ccc(F)cc1)N1CCN(C(=O)N2CC3(CC(n4cnc(C5CC5)n4)C3)C2)CC1 [Example 335, (2R)-2-[4-[6-(3-cyclopropyl-1,2,4-triazol-1-yl)-2-azaspiro[3.3]heptane-2-carbonyl]piperazin-1-yl]-2-(4-fluorophenyl)-N-methyl-acetamide]
The IC50 of the first is 1.9-fold lower: 744 nM for the first, 1400 nM for the second. The first is the more potent here.

First: Cn1cc(S(=O)(=O)N2CC3(CN(C(=O)N4CC5(CC(n6cnc(C7CC7)n6)C5)C4)C3)C2)cn1 [Example 331, [6-(3-cyclopropyl-1,2,4-triazol-1-yl)-2-azaspiro[3.3]heptan-2-yl]-[2-(1-methylpyrazol-4-yl)sulfonyl-2,6-diazaspiro[3.3]heptan-6-yl]methanone]
Second: O=C(N1CC2(CC(n3cnc(C4CC4)n3)C2)C1)N1CC2(C1)CN(S(=O)(=O)C1CS(=O)(=O)C1)C2 [Example 339, [6-(3-cyclopropyl-1,2,4-triazol-1-yl)-2-azaspiro[3.3]heptan-2-yl]-[2-(1,1-dioxothietan-3-yl)sulfonyl-2,6-diazaspiro[3.3]heptan-6-yl]methanone]
The IC50 of the first is 3.8-fold lower: 797 nM for the first, 3010 nM for the second. The first is the more potent here.

Compared with `NC(=O)C(c1ccc(F)cc1)N1CCN(C(=O)N2CC3(CC(n4cnc(C5CC5)n4)C3)C2)CC1` (stereo not drawn) [Example 332, 2-[4-[6-(3-cyclopropyl-1,2,4-triazol-1-yl)-2-azaspiro[3.3]heptane-2-carbonyl]piperazin-1-yl]-2-(4-fluorophenyl)acetamide], `CNC(=O)C(c1ccc(F)cc1)N1CCN(C(=O)N2CC3(CC(n4cnc(C5CC5)n4)C3)C2)CC1` (stereo not drawn) [Example 340, 2-[4-[6-(3-cyclopropyl-1,2,4-triazol-1-yl)-2-azaspiro[3.3]heptane-2-carbonyl]piperazin-1-yl]-2-(4-fluorophenyl)-N-methyl-acetamide] is 3.5-fold higher in IC50: 904 nM for the first, 3190 nM for the second.

First: O=C(N1CC(c2nnc(CC3CC3)[nH]2)C1)N1CC2(CC(n3cnc(C4CC4)n3)C2)C1 [Example 333, [3-[5-(cyclopropylmethyl)-4H-1,2,4-triazol-3-yl]azetidin-1-yl]-[6-(3-cyclopropyl-1,2,4-triazol-1-yl)-2-azaspiro[3.3]heptan-2-yl]methanone]
Second: O=C(N1CCC(NS(=O)(=O)c2ccc(F)cc2)CC1)N1CC2(CC(n3cnc(C4CC4)n3)C2)C1 [Example 336, N-[1-[6-(3-cyclopropyl-1,2,4-triazol-1-yl)-2-azaspiro[3.3]heptane-2-carbonyl]-4-piperidyl]-4-fluoro-benzenesulfonamide]
The IC50 of the first is 1.5-fold lower: 949 nM for the first, 1440 nM for the second. The first is the more potent here.

Compared with `CNC(=O)c1ccccc1S(=O)(=O)N1CC2(CN(C(=O)N3CC4(CC(n5cnc(C6CC6)n5)C4)C3)C2)C1` [Example 334], `O=C(O)c1ccccc1S(=O)(=O)N1CC2(CN(C(=O)N3CC4(CC(n5cnc(C6CC6)n5)C4)C3)C2)C1` [Example 338, 2-[[6-[6-(3-cyclopropyl-1,2,4-triazol-1-yl)-2-azaspiro[3.3]heptane-2-carbonyl]-2,6-diazaspiro[3.3]heptan-2-yl]sulfonyl]benzoic acid] is 2.2-fold higher in IC50: 993 nM for the first, 2150 nM for the second. The first is the more potent here.

Going from `O=C(N1CC2(CC(n3cnc(C4CC4)n3)C2)C1)N1CC2(C1)CN(C(=O)C(F)(F)F)C2` [Example 337, 1-[2-[6-(3-cyclopropyl-1,2,4-triazol-1-yl)-2-azaspiro[3.3]heptane-2-carbonyl]-2,6-diazaspiro[3.3]heptan-6-yl]-2,2,2-trifluoro-ethanone] to `O=C(N1CC2(CC(n3cnc(C(F)(F)F)n3)C2)C1)N1CC2(CN(Cc3ccc(S(=O)(=O)C(F)(F)F)cc3)C2)C1` [Example 353, [6-[[4-(trifluoromethylsulfonyl)phenyl]methyl]-2,6-diazaspiro[3.3]heptan-2-yl]-[6-[3-(trifluoromethyl)-1,2,4-triazol-1-yl]-2-azaspiro[3.3]heptan-2-yl]methanone], the IC50 falls from 1830 nM to 2.4 nM (760-fold). The second is the more potent here.

Going from `O=C(N1CC2(CC(Cc3ccc(F)cc3F)C2)C1)N1CC2(CC(c3ccc(F)cc3)C2)C1` [Example 343, [6-[(2,4-difluorophenyl)methyl]-2-azaspiro[3.3]heptan-2-yl]-[6-(4-fluorophenyl)-2-azaspiro[3.3]heptan-2-yl]methanone] to `CS(=O)(=O)c1ccc(C2CC3(C2)CN(C(=O)N2CC4(CC(Cc5ccc(F)cc5F)C4)C2)C3)cc1` [Example 346, [6-[(2,4-difluorophenyl)methyl]-2-azaspiro[3.3]heptan-2-yl]-[6-(4-methylsulfonylphenyl)-2-azaspiro[3.3]heptan-2-yl]methanone], the IC50 falls from 491 nM to 15.7 nM (31-fold).

Going from `CS(=O)(=O)c1cc(Cl)ccc1-c1ccc(C2CN(C(=O)N3CC4(CC(c5cnc(C(F)(F)F)nc5)C4)C3)C2)cc1` [Example 344, [3-[4-(4-chloro-2-methylsulfonyl-phenyl)phenyl]azetidin-1-yl]-[6-[2-(trifluoromethyl)pyrimidin-5-yl]-2-azaspiro[3.3]heptan-2-yl]methanone] to `CS(=O)(=O)c1cc(Cl)ccc1-c1ccc(C2CN(C(=O)N3CC4(C3)CN(c3cncc(F)c3)C4)C2)cc1` [Example 350, [3-[4-(4-chloro-2-methylsulfonyl-phenyl)phenyl]azetidin-1-yl]-[6-(5-fluoro-3-pyridyl)-2,6-diazaspiro[3.3]heptan-2-yl]methanone], the IC50 rises from 1.62 nM to 12.8 nM (7.9-fold). The first is the more potent here.

Compared with `O=C(N1CC2(CC(Cc3ccc(F)cc3F)C2)C1)N1CC2(CC(c3ccc(S(=O)(=O)C(F)(F)F)cc3)C2)C1` [Example 345, [6-[(2,4-difluorophenyl)methyl]-2-azaspiro[3.3]heptan-2-yl]-[6-[4-(trifluoromethylsulfonyl)phenyl]-2-azaspiro[3.3]heptan-2-yl]methanone], `CS(=O)(=O)c1cc(C(F)(F)F)ccc1C1CC2(C1)CN(C(=O)N1CC3(CC(Cc4ccc(F)cc4F)C3)C1)C2` [Example 347, [6-[(2,4-difluorophenyl)methyl]-2-azaspiro[3.3]heptan-2-yl]-[6-[2-methylsulfonyl-4-(trifluoromethyl)phenyl]-2-azaspiro[3.3]heptan-2-yl]methanone] is 29-fold higher in IC50: 28.9 nM for the first, 833 nM for the second. The first is the more potent here.

Going from `O=C(N1CC2(CC(Cc3ccc(Cl)cn3)C2)C1)N1CC2(C1)CN(c1cncc(F)c1)C2` [Example 348, [6-[(5-chloro-2-pyridyl)methyl]-2-azaspiro[3.3]heptan-2-yl]-[6-(5-fluoro-3-pyridyl)-2,6-diazaspiro[3.3]heptan-2-yl]methanone] to `CC(C)(C)Cn1nncc1-c1ccc(C2CN(C(=O)N3CC4(C3)CN(c3cncc(F)c3)C4)C2)cc1` [Example 349, [3-[4-[3-(2,2-dimethylpropyl)triazol-4-yl]phenyl]azetidin-1-yl]-[6-(5-fluoro-3-pyridyl)-2,6-diazaspiro[3.3]heptan-2-yl]methanone], the IC50 falls from 66.3 nM to 11.9 nM (5.6-fold).

Molecule `CS(=N)(=O)c1cc(F)ccc1CC1CC2(C1)CN(C(=O)N1CC3(CC(n4cnc(C5(O)CC5)n4)C3)C1)C2` (stereo not drawn) [Example 354, [6-[[4-fluoro-2-(methylsulfonimidoyl)phenyl]methyl]-2-azaspiro[3.3]heptan-2-yl]-[6-[3-(1-hydroxycyclopropyl)-1,2,4-triazol-1-yl]-2-azaspiro[3.3]heptan-2-yl]methanone] has an IC50 of 19.2 nM.

Reference: patent publication US20240199587A1, “HETEROCYCLIC COMPOUNDS” (Hoffmann-La Roche Inc., priority 2021, published 2024)
